Assay results taken from patent US8415501B2, “Methods and compositions for making and using polymorphs of cinacalcet” (Amgen, Inc., priority 2006, dated 2013).

Experiments:
[1] = solid-form stability of cinacalcet HCl polymorphs
Excerpt: The present invention describes an additional third form of the compound. […] The present invention is directed to a novel polymorph Form III.

[2] = test system: patients with parathyroid carcinoma; conditions: cited from earlier work
cytochrome P450 2D6 = cytochrome P450 2D6 (Homo sapiens, UniProt P10635); conditions: cited from earlier work
Sequence of cytochrome P450 2D6 (P10635 whole entry): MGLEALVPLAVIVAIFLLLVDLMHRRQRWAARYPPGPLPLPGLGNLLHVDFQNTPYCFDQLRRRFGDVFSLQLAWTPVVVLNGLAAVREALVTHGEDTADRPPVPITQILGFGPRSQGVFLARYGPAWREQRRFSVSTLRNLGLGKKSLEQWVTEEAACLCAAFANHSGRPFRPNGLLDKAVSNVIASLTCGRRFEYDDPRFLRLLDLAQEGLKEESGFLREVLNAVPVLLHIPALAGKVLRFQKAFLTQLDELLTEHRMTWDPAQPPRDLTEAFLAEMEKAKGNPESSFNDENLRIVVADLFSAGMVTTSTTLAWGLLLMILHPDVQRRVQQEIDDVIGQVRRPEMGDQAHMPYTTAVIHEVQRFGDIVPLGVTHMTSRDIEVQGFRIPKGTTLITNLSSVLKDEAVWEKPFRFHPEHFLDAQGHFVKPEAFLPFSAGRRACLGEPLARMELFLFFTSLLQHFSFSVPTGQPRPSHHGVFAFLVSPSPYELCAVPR

Question: Which “stability of the crystalline form” value ([1]; room temperature) does the source give for `C[C@@H](NCCCc1cccc(C(F)(F)F)c1)c1cccc2ccccc12.Cl` [Form II] here?
Answer: unstable at room temperature

Question: Which “effect on calcium levels” value [2] does the source give for `C[C@@H](NCCCc1cccc(C(F)(F)F)c1)c1cccc2ccccc12.Cl` [Sensipar®, N-[1-(R)-(−)-(1-naphthyl)ethyl]-3-[3-(trifluoromethyl)phenyl]-1-aminopropane hydrochloride] here?
Answer: reduce high levels of calcium

Question: And the metabolizing enzyme (cytochrome P450 2D6)?
Answer: metabolized by cytochrome P450 2D6

Question: For `C[C@@H](NCCCc1cccc(C(F)(F)F)c1)c1cccc2ccccc12.Cl` [Form III, N-[1-(R)-(−)-(1-naphthyl)ethyl]-3-[3-(trifluoromethyl)phenyl]-1-aminopropane hydrochloride], which “thermodynamic stability of the crystalline form” value ([1]; solvent systems and crystallization methods, XRPD analysis) is on record?
Answer: metastable form
